Results published in publication PMC2138508 (The Journal of Experimental Medicine, 1968).
Ends that are not written are not given here.

Test system: renin
Type: biochemical, hog
Settings: for Vmax per Goldblatt unit/ml: average over the renin concentrations used; for Km relative to the tetradecapeptide (times larger): ratio of Km values

Row | Substance | Vmax per Goldblatt unit/ml (pH 7.5, 37.5C) | further results
1 | Asp Arg Val Tyr Ileu His Pro Phe His Leu Leu Val Tyr Ser [asp^1-arg^2-val^3-tyr^4-ileu^5-his^6-pro^7-phe^8-his^9-leu^10-leu^11-val^12-tyr^13-ser^14] | 10.2 x 10-6 M/min per Goldblatt uni | –
2 | HPFHLLV | – | Average Km (mean of the Km values at the two renin concentrations, pH 7.5, 37.5C): eo; Substrate activity with renin (renin 0.183 Goldblatt units/ml, pH 7.5, 37.5C): no hydrolysis occurred
3 | HPFHLLVY [his^6-pro^7-phe^8-his^9-leu^10-leu^11-val^12-tyr^13] | 7.6 x 10-6 M/min per Goldblatt uni | Km relative to the tetradecapeptide (times larger): ~ 12 times
4 | HPFHLLVYS [his^6-pro^7-phe^8-his^9-leu^10-leu^11-val^12-tyr^13-ser^14] | 11.7 x 10-6 M/min per Goldblatt uni | Km relative to the tetradecapeptide (times larger): ~ 12 times
5 | Ileu His Pro Phe His Leu Leu Val Tyr Ser | 10.9 x 10-6 M/min per Goldblatt uni | –
6 | NRVYVHPFHLLVYS [reference compound] | 9.1 x 10-6 M/min per Goldblatt uni | –
7 | PFHLLVYS | 0.55 x 10-6 M/min per Goldblatt uni | Vm as printed in the Lineweaver-Burk plot of Fig. 4 (value of the figure where it differs from Table I): 0.6 x 10-6 M/min/Goldblatt unit
8 | Tyr Ileu His Pro Phe His Leu Leu Val Tyr Ser | 9.8 x 10-6 M/min per Goldblatt uni | –
9 | Val Tyr Ileu His Pro Phe His Leu Leu Val Tyr Ser | 8.9 x 10-6 M/min per Goldblatt uni | Vmax (renin concentration 0.0195 Goldblatt units/ml (so in the source), pH 7.5, 37.5C): 9.1e-07 M/min
